Measured values taken from ChEMBL document CHEMBL4610038, “The synthesis of trifluoromethylated N-nitroaryl-2-amino-1,3-dichloropropane derivatives and their evaluation as potential anti-cancer agents” (Bioorg Med Chem Lett, 2020).

How the values were obtained:
MCF7 [1] = test: Cytotoxicity against human MCF7 cells assessed as cell viability at 100 uM relative to control; type: functional; details: read-out: Activity
MDA-MB-231 [2] = test: Cytotoxicity against human MDA-MB-231 cells assessed as cell viability at 100 uM relative to control; type: functional; details: read-out: Activity
MDA-MB-468 [3] = test: Cytotoxicity against human MDA-MB-468 cells assessed as cell viability at 100 uM relative to control; type: functional; details: read-out: Activity
SK-BR-3 [4] = test: Cytotoxicity against human SKBR3 cells assessed as cell viability at 100 uM relative to control; type: functional; details: read-out: Activity
T47D [5] = test: Cytotoxicity against human T47D cells assessed as cell viability at 100 uM relative to control; type: functional; details: read-out: Activity
Caco-2 [6] = test: Cytotoxicity against human Caco2 cells assessed as cell viability at 100 uM relative to control; type: functional; details: read-out: Activity
HCT-116 [7] = test: Cytotoxicity against human HCT116 cells assessed as cell viability at 100 uM relative to control; type: functional; details: read-out: Activity
HT-29 [8] = test: Cytotoxicity against human HT-29 cells assessed as cell viability at 100 uM relative to control; type: functional; details: read-out: Activity
SW48 [9] = test: Cytotoxicity against human SW48 cells assessed as cell viability at 100 uM relative to control; type: functional; details: read-out: Activity
A549 [10] = test: Cytotoxicity against human A549 cells assessed as cell viability at 100 uM relative to control; type: functional; details: read-out: Activity
NCI-H1299 [11] = test: Cytotoxicity against human H1299 cells assessed as cell viability at 100 uM relative to control; type: functional; details: read-out: Activity
CNE [12] = test: Cytotoxicity against human CNE1 cells assessed as cell viability at 100 uM relative to control; type: functional; details: read-out: Activity
[13] = Cytotoxicity against human HK1 cells assessed as cell viability at 100 uM relative to control; type: functional; details: HK-1, read-out: Activity
SUNE1 [14] = test: Cytotoxicity against human SUNE1 cells assessed as cell viability at 100 uM relative to control; type: functional; details: read-out: Activity
SH-SY5Y [15] = test: Cytotoxicity against human SH-SY5Y cells assessed as cell viability at 100 uM relative to control; type: functional; details: read-out: Activity
ASPC1 [16] = test: Cytotoxicity against human AsPC1 cells assessed as cell viability at 100 uM relative to control; type: functional; details: read-out: Activity
BXPC-3 [17] = test: Cytotoxicity against human BxPC3 cells assessed as cell viability at 100 uM relative to control; type: functional; details: read-out: Activity
SW1990 [18] = test: Cytotoxicity against human SW1990 cells assessed as cell viability at 100 uM relative to control; type: functional; details: read-out: Activity
[19] = Cytotoxicity against human MCF10A cells assessed as cell viability at 100 uM relative to control; type: cell-based, MCF-10A; details: read-out: Activity
[20] = Cytotoxicity against human MRC5 cells assessed as cell viability at 100 uM relative to control; type: cell-based; details: read-out: Activity
MCF7 [21] = test: Cytotoxicity against human MCF7 cells assessed as reduction in cell viability; type: functional, cell-based
MDA-MB-231 [22] = test: Cytotoxicity against human MDA-MB-231 cells assessed as reduction in cell viability; type: functional, cell-based
MDA-MB-468 [23] = test: Cytotoxicity against human MDA-MB-468 cells assessed as reduction in cell viability; type: functional, cell-based
SK-BR-3 [24] = test: Cytotoxicity against human SKBR3 cells assessed as reduction in cell viability; type: functional, cell-based
T47D [25] = test: Cytotoxicity against human T47D cells assessed as reduction in cell viability; type: functional, cell-based
Caco-2 [26] = test: Cytotoxicity against human Caco2 cells assessed as reduction in cell viability; type: functional, cell-based
HCT-116 [27] = test: Cytotoxicity against human HCT116 cells assessed as reduction in cell viability; type: functional, cell-based
HT-29 [28] = test: Cytotoxicity against human HT-29 cells assessed as reduction in cell viability; type: functional, cell-based
SW48 [29] = test: Cytotoxicity against human SW48 cells assessed as reduction in cell viability; type: functional, cell-based
A549 [30] = test: Cytotoxicity against human A549 cells assessed as reduction in cell viability; type: functional, cell-based
NCI-H1299 [31] = test: Cytotoxicity against human H1299 cells assessed as reduction in cell viability; type: functional, cell-based
CNE [32] = test: Cytotoxicity against human CNE1 cells assessed as reduction in cell viability; type: functional, cell-based
[33] = Cytotoxicity against human HK1 cells assessed as reduction in cell viability; type: functional, cell-based; details: HK-1
SUNE1 [34] = test: Cytotoxicity against human SUNE1 cells assessed as reduction in cell viability; type: functional, cell-based
SH-SY5Y [35] = test: Cytotoxicity against human SH-SY5Y cells assessed as reduction in cell viability; type: functional, cell-based
ASPC1 [36] = test: Cytotoxicity against human AsPC1 cells assessed as reduction in cell viability; type: functional, cell-based
BXPC-3 [37] = test: Cytotoxicity against human BxPC3 cells assessed as reduction in cell viability; type: functional, cell-based
SW1990 [38] = test: Cytotoxicity against human SW1990 cells assessed as reduction in cell viability; type: functional, cell-based
MCF-10A = test: Cytotoxicity against human MCF10A cells assessed as reduction in cell viability; type: cell-based
MRC5 = test: Cytotoxicity against human MRC5 cells assessed as reduction in cell viability; type: cell-based

SMILES | viability at 100 µM (MCF7 [1]) [%] | viability at 100 µM (MDA-MB-231 [2]) [%] | viability at 100 µM (MDA-MB-468 [3]) [%] | viability at 100 µM (SK-BR-3 [4]) [%] | viability at 100 µM (T47D [5]) [%] | viability at 100 µM (Caco-2 [6]) [%] | viability at 100 µM (HCT-116 [7]) [%] | viability at 100 µM (HT-29 [8]) [%] | viability at 100 µM (SW48 [9]) [%] | viability at 100 µM (A549 [10]) [%] | viability at 100 µM (NCI-H1299 [11]) [%] | viability at 100 µM (CNE [12]) [%] | viability at 100 µM [13] [%] | viability at 100 µM (SUNE1 [14]) [%] | viability at 100 µM (SH-SY5Y [15]) [%] | viability at 100 µM (ASPC1 [16]) [%] | viability at 100 µM (BXPC-3 [17]) [%] | viability at 100 µM (SW1990 [18]) [%] | viability at 100 µM [19] [%] | viability at 100 µM [20] [%] | also measured
O=[N+]([O-])c1ccc(NC(CCl)CCl)cc1 | 38.8 | 72.4 | 45.1 | 73.1 | 65.2 | 91.6 | 79.4 | 60.9 | 58.8 | 73.5 | 67.4 | 88.1 | 76.9 | 110 | 65.8 | 67.7 | 82.9 | 55.1 | 82.7 | 44.9 | IC50 (MCF7 [21]): 70.2 µM; IC50 (MDA-MB-231 [22]): > 100 µM; IC50 (MDA-MB-468 [23]): > 100 µM; IC50 (SK-BR-3 [24]): > 100 µM; IC50 (T47D [25]): > 100 µM; IC50 (Caco-2 [26]): > 100 µM; IC50 (HCT-116 [27]): > 100 µM; IC50 (HT-29 [28]): > 100 µM; IC50 (SW48 [29]): > 100 µM; IC50 (A549 [30]): > 100 µM; IC50 (NCI-H1299 [31]): > 100 µM; IC50 (CNE [32]): > 100 µM; IC50 [33]: > 100 µM; IC50 (SUNE1 [34]): > 100 µM; IC50 (SH-SY5Y [35]): > 100 µM; IC50 (ASPC1 [36]): > 100 µM; IC50 (BXPC-3 [37]): > 100 µM; IC50 (SW1990 [38]): > 100 µM; IC50 (MCF-10A): > 100 µM; IC50 (MRC5): 58.3 µM
O=[N+]([O-])c1ccc(NC(CO)CO)cc1 | 65.6 | 87.7 | 102 | 93.1 | 73.6 | 101 | 89.7 | 96.3 | 95.3 | 96.7 | 92.7 | 104 | 99.6 | 109 | 99.9 | 96.4 | 100 | 87.5 | 103 | 32.2 | IC50 (MCF7 [21]): > 100 µM; IC50 (MDA-MB-231 [22]): > 100 µM; IC50 (MDA-MB-468 [23]): > 100 µM; IC50 (SK-BR-3 [24]): > 100 µM; IC50 (T47D [25]): > 100 µM; IC50 (Caco-2 [26]): > 100 µM; IC50 (HCT-116 [27]): > 100 µM; IC50 (HT-29 [28]): > 100 µM; IC50 (SW48 [29]): > 100 µM; IC50 (A549 [30]): > 100 µM; IC50 (NCI-H1299 [31]): > 100 µM; IC50 (CNE [32]): > 100 µM; IC50 [33]: > 100 µM; IC50 (SUNE1 [34]): > 100 µM; IC50 (SH-SY5Y [35]): > 100 µM; IC50 (ASPC1 [36]): > 100 µM; IC50 (BXPC-3 [37]): > 100 µM; IC50 (SW1990 [38]): > 100 µM; IC50 (MCF-10A): > 100 µM; IC50 (MRC5): 60.2 µM
O=[N+]([O-])c1ccccc1NC(CO)CO | 66.6 | 91.8 | 104 | 101 | 76.2 | 95.1 | 76.9 | 86.1 | 102 | 74.9 | 96.7 | 102 | 90.1 | 99.3 | 89.7 | 101 | 102 | 91.9 | 100 | 101 | IC50 (MCF7 [21]): > 100 µM; IC50 (MDA-MB-231 [22]): > 100 µM; IC50 (MDA-MB-468 [23]): > 100 µM; IC50 (SK-BR-3 [24]): > 100 µM; IC50 (T47D [25]): > 100 µM; IC50 (Caco-2 [26]): > 100 µM; IC50 (HCT-116 [27]): > 100 µM; IC50 (HT-29 [28]): > 100 µM; IC50 (SW48 [29]): > 100 µM; IC50 (A549 [30]): > 100 µM; IC50 (NCI-H1299 [31]): > 100 µM; IC50 (CNE [32]): > 100 µM; IC50 [33]: > 100 µM; IC50 (SUNE1 [34]): > 100 µM; IC50 (SH-SY5Y [35]): > 100 µM; IC50 (ASPC1 [36]): > 100 µM; IC50 (BXPC-3 [37]): > 100 µM; IC50 (SW1990 [38]): > 100 µM; IC50 (MCF-10A): > 100 µM; IC50 (MRC5): > 100 µM
O=[N+]([O-])c1ccccc1NC(CCl)CCl | 37.7 | 85.1 | 63.6 | 79.9 | 69.8 | 104 | 64.9 | 65.3 | 62.6 | 82.9 | 109 | 72.5 | 101 | 80.5 | 60.8 | 75.2 | 105 | 64.4 | 88.7 | 54.8 | IC50 (MCF7 [21]): 50.9 µM; IC50 (MDA-MB-231 [22]): > 100 µM; IC50 (MDA-MB-468 [23]): > 100 µM; IC50 (SK-BR-3 [24]): > 100 µM; IC50 (T47D [25]): > 100 µM; IC50 (Caco-2 [26]): > 100 µM; IC50 (HCT-116 [27]): > 100 µM; IC50 (HT-29 [28]): > 100 µM; IC50 (SW48 [29]): > 100 µM; IC50 (A549 [30]): > 100 µM; IC50 (NCI-H1299 [31]): > 100 µM; IC50 (CNE [32]): > 100 µM; IC50 [33]: > 100 µM; IC50 (SUNE1 [34]): > 100 µM; IC50 (SH-SY5Y [35]): > 100 µM; IC50 (ASPC1 [36]): > 100 µM; IC50 (BXPC-3 [37]): > 100 µM; IC50 (SW1990 [38]): > 100 µM; IC50 (MCF-10A): > 100 µM; IC50 (MRC5): > 100 µM
